By solubility is commonly meant the concentration that dissolves in the medium under given conditions. A high value points to much dissolved substance. The MIC is the lowest concentration found to suppress growth.

The results in this text go back to paper PMC12261321, “Inhibitors of the Bacterioferritin Ferredoxin Complex Dysregulate Iron Homeostasis and Kill and Biofilm-Embedded Cells” (ACS Infectious Diseases, 2025).

Values after ≈ are worked out from the molar mass of the structure shown.

Series [1] in a line: Determination of compound aqueous solubility in M63 media. It is filed as physicochemical. Conditions: in M63 media at 35 °C. The protocol: Determination of Compound Aqueous Solubility. Compound stocks (100 mM in DMSO) were prepared from […]
powder and then further diluted with DMSO to prepare 20 mM working solutions, which were diluted as needed […]
in DMSO. 15 µL o f the DMSO solution was then d iluted to a final volume o f 1.0 mL in M63 media. Six solutions […]
were prepared for each compound, each with a distinct concentration and 1.5% DMSO (v/v). 700 µL of each […]
compound solution was transferred to a polystyrene 48-well plate (VWR), followed by acquisition of UV-vis […]
spectra (300 to 700 nm) with the aid of an Epoch 2 microplate reader (B i o Te k ). […]
Following the acquisition of UV-vis spectra, each of the wells in the plate was inspected under a […]
microscope for evidence of precipitation. Evidence of precipitation at any given concentration was determined by observing a shift in the baseline of the UV-vis spectra relative to the blank (M63 media) and/or evidence of visual precipitation with the aid of a micros cope. […]

In series [2] the test system is P. aeruginosa PAO1 biofilm. The series can be described thus: Pellicle biofilm assay, % survival of biofilm cells. It is filed as cell-based. The conditions noted are these: for % Survival Biofilm, P. aeruginosa PAO1: 24 h. The protocol: We studied the susceptibility of mature biofilms to treatment with analogues of 4-aminoisoindoline-1,3-dione using biofilms cultured at the […] interface (pellicles) using methodology reported previously. To determine the susceptibility of pellicle biofilms to inhibitors of the Pa Bfr–Bfd complex, we cultured 27 h old biofilms in PI media supplemented with 20 μM Fe, as presented in Experimental Methods. The mature biofilms were transferred onto glass coverslips by touching the pellicle with the surface of the coverslips. The coverslip-adhered biofilms were then exposed to treatment solution consisting of AB media supplemented with 20 μM Fe, 1.5% DMSO, 0.025% HPMC, and 4-aminoisoindoline-1,3-dione derivative or commercial antibiotic for 24 h. The biofilms were then harvested and washed, and the cells were dispersed into sterile PBS by vortexing in the presence of zirconia beads prior to plating and enumerating viable cells (CFU/mL) to calculate % cell survival.
Biofilm Assays. Pellicle biofilms formed by EYF P-expressing P. aeruginosa PAO1 wer e carried ou t as repo rted previously,13 with some modifications. Starter cultures were diluted to OD600 = 0.001 in 4 mL PI media supplement ed with 20 µM Fe , trans ferred to petri dishes (35 x 10 mm) and incubated statically for 27 h at 30 °C.
The pellicles were transferred onto circular microscope glass coverslips (12 mm diameter) by gently allowing the surface of a coverslip to contact the pellicle. Th e biofilm- attached coverslip was washed (3 x) by floating it on top of PBS with the biofilm exposed to the liquid and then placed on top of 1.5 mL AB challenge media in a well of a 12-well microplate, with the biofilm exposed to the media at 30 °C for 24 h. AB challenge media is AB minimal media supplemented with 1.5% DMSO, 0.025% HPMC, 20 μ M Fe, and 4-aminoisoindoline-1,3- dione […]
The 4-aminoisoindoline-1,3- dione derivative solutions were prep ared from powder as 10 mM st ock solutions in DMSO and then diluted in AB challenge media to the appropriate concentrations. Following the 24 h challenge, planktonic and loosely attached cells were washed 3 times by floating the coverslip-attached biofilms with the biofilm facing down into a petri d ish (60 x 15 mm) containing 15 mL PBS, and incubating for 5 min. The biofilm was removed from the coversli p and the cells releas ed f rom the extra cel lular matrix by placing th e cov erslip-attach ed biofi lm in a 50 mL conical tub e containing a 2-mL sup ension of zirconia beads (0.1 mm diam eter, BiosSpec Produ cts), 10 mL PBS, 1 mM MgSO4, 20 µg/mL alginate lyase and 40 µg/mL DNAse. The mixture was incubated for three min at room temperature, and then vigorously vortexed for four min. Following sedimentation of the zirconia beads, a 100 μ L aliquot was utilized for serial dilution in PBS and plating on PIA plates for viable cell enumeration (CFU/mL). […]

The subject of the next series is A. baumannii 5075. The series can be described thus: MIC, broth microdilution in M63 media. It is filed as cell-based. The protocol:
(§1) Measurement of Minimum Inhibitory Concentrations (MIC). The MIC of compounds and select ed antibiotics against three strains of A. baumannii (5075, ATCC 17988, and ATCC 19606) were determined via the broth microdilution method according to Clinical and Laboratory Standard Instit ute (CLSI) guidelines,15 but culturing […]
(§2) To establish a 2-fold dilution series of compound, 985 μ L of diluted cells was mixed with 15 μ L of compound […]
(§3) dissolved in DMSO, such that the resultant solution had the highest concentration of compound or antibiotic tested and 1.5% DMSO. To carry out the serial dilution from the highest compound concentration, a 150 μ L solution of higher concentration compound or antibiotic was mixed with 150 μ L of cell suspension containing 1.5% DMSO in the wells of a 96 well plate.
(§4) Th e 96 well plate was in cubated for 20 hat 35 °C with continuous orbital shaking (205 cpm) in an Epoch2 microplate reader (BioTek), monitoring the growth by […]
(§5) following the OD600. […]
(§6) FFFFFF = MMMMMMAA iiii ccllccbbiiiicccciilliiMMMMMMAA+ MMMMMMBB iiii ccllccbbiiiicccciilliiMMMMMMBB S2 Time Kill Assays. Time-kill assays were performed with A. baumannii 507 5 by the broth macro- dilution method in M63- medium containing 1.5% DMSO. An overnight culture was diluted to approximately 5 x10^5 CFU/mL in fresh M63 media. The test solutions were prepared by adding compound (KM-5- 35, or KM-5- 25) dissolved in DMSO to 5 mL of diluted cell suspension to yield a solution of the desired compound concentration and 1.5% DMSO, or by the addition of antibiotic dissolved in water and a small volume of DMSO to produce the desired
(In general: Broth dilution looks for growth in wells or tubes with falling amounts of substance.)

In a further series the test system is A. baumannii ATCC 17978. Put plainly: MIC, broth microdilution in M63 media. It is filed as cell-based. The protocol: as §1, §2, §3, §4, §5, §6
For a further series, the system named is A. baumannii ATCC 19606. Put plainly: MIC, broth microdilution in M63 media. It is filed as cell-based. As for the experimental part:
as §1, §2, §3, §4, §5, §6

The mark [3] stands for this setting: biofilm challenged with 30 µM compound.
The mark [4] stands for this setting: biofilm challenged with 50 µM compound.

The molecule `O=C1NC(=O)c2c(NCc3cccc(Br)c3O)cccc21` [EB-5-73] had a solubility at 4 h in series [1] of 40 µM (≈ 13.9 µg/mL). For the same molecule, the “% Survival Biofilm, P. aeruginosa PAO1” value in series [2] (setting [3]) came out at 78 ± 14%. Also, the MIC in the series on A. baumannii 5075 (20 h) is given as more than 40 µM; against A. baumannii ATCC 17978 (20 h), 40 µM (≈ 13.9 µg/mL); against A. baumannii ATCC 19606 (20 h), more than 40 µM.
In the case of `O=C1NC(=O)c2c(NCc3cc(Br)ccc3O)cccc21` [KM-5-35, 4-((5-Bromo-2-hydroxybenzyl)amino)isoindoline-1,3-dione], the solubility at 4 h in series [1] worked out at 60 µM (≈ 20.8 µg/mL). In addition, the biofilm cell death result in series [2] (27 h old pellicle biofilms treated 24 h) is listed as “concentration-dependent biofilm cell death”. Also, in series [2] (setting [4]), the “% Survival Biofilm, P. aeruginosa PAO1” value was 10 ± 4%. The figures for the MIC in the series on A. baumannii 5075 (20 h), in the series with A. baumannii ATCC 17978 (20 h) and in the series with A. baumannii ATCC 19606 (20 h) were 40 µM (≈ 13.9 µg/mL), 30 µM (≈ 10.4 µg/mL) and 30 µM (≈ 10.4 µg/mL), respectively.
Turning to `O=C1NC(=O)c2c(NCc3cc(Cl)ccc3O)ccc(Br)c21` [SB-16-51], the solubility at 4 h in series [1] worked out at 20 µM (≈ 7.63 µg/mL). Also, the “% Survival Biofilm, P. aeruginosa PAO1” value in series [2] (biofilm challenged with 20 µM compound) is 53 ± 9%. The MIC is reported as 10 µM (≈ 3.82 µg/mL) against A. baumannii 5075 (20 h), 15 µM (≈ 5.72 µg/mL) against A. baumannii ATCC 17978 (20 h) and 15 µM (≈ 5.72 µg/mL) against A. baumannii ATCC 19606 (20 h).
The molecule `O=C1NC(=O)c2c(NCc3ccc(Br)cc3O)cccc21` [EB-5-61] returned a solubility at 4 h in series [1] of 60 µM (≈ 20.8 µg/mL). In series [2] (setting [4]), the “% Survival Biofilm, P. aeruginosa PAO1” value was 8 ± 2%. In addition, the MIC in the series with A. baumannii 5075 (20 h), against A. baumannii ATCC 17978 (20 h) and in the series with A. baumannii ATCC 19606 (20 h) was 50 µM (≈ 17.4 µg/mL) throughout.
For `Cc1cccc(CNc2cccc3c2C(=O)NC3=O)c1O` [EB-5-70], in series [1], the solubility at 4 h is given as 100 µM (≈ 28.2 µg/mL). Further, the “% Survival Biofilm, P. aeruginosa PAO1” value in series [2] (setting [4]) turned out to be 105 ± 2%. The MIC in the series on A. baumannii 5075 (20 h), against A. baumannii ATCC 17978 (20 h) and in the series with A. baumannii ATCC 19606 (20 h) was 100 µM (≈ 28.2 µg/mL) in each case.
For the molecule `O=C1NC(=O)c2c(NCc3c(O)cccc3F)cccc21` [EB-5-71], in series [1], the solubility at 4 h came to 150 µM (≈ 42.9 µg/mL). Also, the “% Survival Biofilm, P. aeruginosa PAO1” value in series [2] (setting [4]) is on record as 52 ± 10%. Further, the MIC in the series with A. baumannii 5075 (20 h), with A. baumannii ATCC 17978 (20 h) and against A. baumannii ATCC 19606 (20 h) was 75 µM (≈ 21.5 µg/mL) throughout.
In series [1], `O=C1NC(=O)c2c(NCc3cc(Br)cc(F)c3O)cccc21` [SB-16-118] displayed a solubility at 4 h of 40 µM (≈ 14.6 µg/mL). For the same molecule, the “% Survival Biofilm, P. aeruginosa PAO1” value in series [2] (biofilm challenged with 40 µM compound) was found to be 13 ± 2%. Moreover, the MIC worked out at 20 µM (≈ 7.3 µg/mL) against A. baumannii 5075 (20 h), 30 µM (≈ 11 µg/mL) against A. baumannii ATCC 17978 (20 h) and 30 µM (≈ 11 µg/mL) in the series with A. baumannii ATCC 19606 (20 h).
Molecule `O=C1NC(=O)c2c(NCc3cc(F)ccc3O)cccc21` [JAG-5-7] gave a solubility at 4 h in series [1] (M63 media with 1.5% DMSO, 35 °C, aqueous buffer, kinetic from dmso stock) of 180 µM (≈ 51.5 µg/mL). The “% Survival Biofilm, P. aeruginosa PAO1” value in series [2] (setting [4]) was determined as 85 ± 16%. Further, the MIC amounted to 60 µM (≈ 17.2 µg/mL) in the series on A. baumannii 5075 (Acinetobacter baumannii, 5075, 20 h); 60 µM (≈ 17.2 µg/mL) in the series on A. baumannii ATCC 17978 (Acinetobacter baumannii, ATCC17978, 20 h); 60 µM (≈ 17.2 µg/mL) with A. baumannii ATCC 19606 (Acinetobacter baumannii, ATCC19606, 20 h).
As to `O=C1NC(=O)c2c(NCc3cc(Br)c(F)cc3O)cccc21` [SB-16-112], the solubility at 4 h in series [1] came to 30 µM (≈ 11 µg/mL). Besides, the “% Survival Biofilm, P. aeruginosa PAO1” value in series [2] (setting [3]) was found to be 15 ± 0.7%. Further, the MIC with A. baumannii 5075 (20 h), against A. baumannii ATCC 17978 (20 h) and with A. baumannii ATCC 19606 (20 h) was 20 µM (≈ 7.3 µg/mL) in each case.
